The structures appear in SMILES notation. Active and inactive are the calls of the source. No cut-off for these calls is given here.

Test [1] has as its system HL-60. The test is described as follows: Antiproliferative activity against human HL-60 cells assessed as reduction in cell viability at 12.5 uM incubated for 48 hrs by CCK-8 assay relative to control. It counts as functional.
Test [2] deals with HL-60. The test is described as follows: Antiproliferative activity against human HL-60 cells assessed as inhibition of cell growth incubated for 48 hrs by CCK-8 assay. It counts as functional, cell-based. The settings on record: HL-60, 48 h. (Tetrazolium assays rely on reduction of a dye to a coloured formazan, in cell work by metabolically active cells.)
Test [3] deals with HL-60. The test is described as follows: Induction of ROS generation in human HL-60 cells assessed as fold increase in intracellular ROS level at 6.25 uM incubated for 3 hrs by NBT reduction assay relative to control. It counts as functional.
Another test has as its system B16. The test is described as follows: Antiproliferative activity against mouse B16 cells assessed as inhibition of cell growth incubated for 48 hrs by CCK-8 assay. Format: functional, cell-based. Particulars: B16, 48 h.
In test [4] the test system is HL-60. The test is described as follows: Induction of cell morphological changes in human HL-60 cells assessed as appearance of apoptotic bodies at 3 uM incubated for 48 hrs by Hoechst 33342 staining based microscopic analysis. It counts as functional.
Test [5] relates to HL-60. Briefly: Induction of cell morphological changes in human HL-60 cells assessed as chromatin condensation at 3 uM incubated for 48 hrs by Hoechst 33342 staining based microscopic analysis. It counts as functional.
Test [6] deals with HL-60. The test is described as follows: Induction of ROS generation in human HL-60 cells assessed as increase in extracellular ROS level at 6.25 uM incubated for 3 hrs by NBT reduction assay. Format: functional, cell-based.

Consider `COc1ccc2c(=O)c3c(oc4c5ccc(OC)cc5c(=O)c(=O)c43)c(=O)c2c1`, for which the Activity in the test on HL-60 [1] was found to be 74%.

In general, IC50 refers to the midpoint of a concentration-inhibition curve. With `COC1=C(c2ccc(O)cc2)C(=O)C(OC)=C(c2ccc(O)cc2)C1=O`, the concentration for half-maximal inhibition (IC50) in the test on HL-60 [2] is above 25000 nM.

With `O=c1c2ccccc2c(=O)c2c1oc1c(=O)c3ccccc3c(=O)c12`, the IC50 in the test with HL-60 [2] stood at 70 nM; with B16, 180 nM. In the test with HL-60 [1], the Activity is given as below 10%. In addition, the “fold change (FC)” value in the test on HL-60 [3] is given as above 4. The outcome in the test with HL-60 [4] and in the test on HL-60 [5] was Active.

`O=c1c2ccccc2c(=O)c2c1sc1c(=O)c3ccccc3c(=O)c12`: the IC50 in the test on HL-60 [2] was determined as 1730 nM; in the test on B16, 2380 nM. Moreover, in the test on HL-60 [1], the Activity is reported as below 10%. In addition, the “fold change (FC)” value with HL-60 [3] was above 4. For the same compound, the outcome with HL-60 [4] and in the test with HL-60 [5] was Active.

On to `O=C1C(O)=C(c2ccccc2)C(=O)C(O)=C1c1ccccc1`, for which the IC50 in the test on HL-60 [2] is above 25000 nM.

As to `O=C1C(OC(=O)c2ccccc2)=C(c2ccc(O)cc2)C(=O)C(OC(=O)c2ccccc2)=C1c1ccc(O)cc1`, the half-maximal inhibitory concentration (IC50) with HL-60 [2] is above 25000 nM.

Turning to `O=c1c(=O)c2c(oc3c(=O)c4ccccc4c(=O)c32)c2ccccc12`, the IC50 was 1570 nM in the test on HL-60 [2] and 2950 nM in the test on B16. Moreover, the Activity in the test with HL-60 [1] is on record as below 10%. The “fold change (FC)” value with HL-60 [3] is above 4. Besides, the result with HL-60 [6], in the test with HL-60 [4] and with HL-60 [5] was Active.

With `O=C1C(O)=C(c2ccc(O)cc2)C(=O)C(O)=C1c1ccc(O)cc1`, the IC50 in the test with HL-60 [2] was determined as 5710 nM.

Take `COC1=C(c2ccc(OC)cc2)C(=O)C(OC)=C(c2ccc(OC)cc2)C1=O`: the half-maximal inhibitory concentration (IC50) with HL-60 [2] was above 25000 nM.

Take `COc1ccc(C2=C(O)C(=O)C(c3ccc(OC)cc3)=C(O)C2=O)cc1`: the IC50 in the test with HL-60 [2] is above 25000 nM.

For the compound `COC1=C(c2ccccc2)C(=O)C(OC)=C(c2ccccc2)C1=O` [BETULINAN A], the IC50 in the test with HL-60 [2] turned out to be 5910 nM.

Consider `O=c1c2ccccc2c(=O)c2c1[se]c1c(=O)c3ccccc3c(=O)c12`, for which the IC50 came out at 2910 nM in the test with HL-60 [2] and 2830 nM in the test on B16. Besides, the Activity in the test on HL-60 [1] is on record as below 10%. In addition, the “fold change (FC)” value in the test on HL-60 [3] is above 4. Moreover, the outcome with HL-60 [4] and in the test on HL-60 [5] was Active.

Regarding `COc1ccc2c(=O)c3oc4c5cc(OC)ccc5c(=O)c(=O)c4c3c(=O)c2c1`, the Activity in the test with HL-60 [1] was found to be 11%.

Consider `COc1ccc2c(=O)c3sc4c(=O)c5ccc(OC)cc5c(=O)c4c3c(=O)c2c1`, for which, in the test on HL-60 [1], the Activity stood at 31.8%.

The values are drawn from ChEMBL document CHEMBL5214937, “Comparative analysis of p-terphenylquinone and seriniquinone derivatives as reactive oxygen species-modulating agents” (Bioorg Med Chem Lett, 2022).
